Test systems include ACHN; SK-MEL-2; NCI/ADR-RES; UACC-62; HOP-62; MDA-N; U-251; SF-539; SNB-75; M14; SK-MEL-5; SF-268; IGROV-1; MCF7; KM12; Malme-3M; MDA-MB-435; HL-60.
Holding throughout (assay): NCI tumour cell line growth inhibition, 48 h

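1) Cells in 96-well plates. 2) Compound, 48 h, 5 concentrations. 3) Linear interpolation between surrounding doses. 4) Unreached endpoint = highest concentration. Abbreviation: GI50, concentration required for 50% inhibition of growth.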 The source made the active and inactive calls. Rule as the data show it: active = GI50 up to about 1.1 µM and inactive = higher.

In the case of `Cc1ncc(COP(=O)(O)O)c(/C=C2\SC(=S)NC2=O)c1O`, the GI50 in the test on ACHN, in the test with SK-MEL-2, in the test on NCI/ADR-RES, with UACC-62, in the test with HOP-62 and with MDA-N was > 100 µM (inactive) in each case. The GI50 with U-251, in the test with SF-539, in the test with SNB-75, with M14, in the test on SK-MEL-5 and in the test with SF-268 was > 100 µM (inactive) in each case. In addition, the GI50 with IGROV-1, with MCF7, in the test with KM12, in the test on Malme-3M and in the test with MDA-MB-435 was > 100 µM (inactive) each time.
`Cc1c(C(C)C)cc(OCCO)cc1C(C)C`: the GI50 is 51.4 µM (inactive) in the test with ACHN; 23.9 µM (inactive) in the test on SK-MEL-2; 40 µM (inactive) with NCI/ADR-RES; 40.6 µM (inactive) with UACC-62; 75.7 µM (inactive) in the test with HOP-62; 31.2 µM (inactive) with MDA-N. Moreover, the GI50 with U-251 is 40.6 µM (inactive); with SF-539, 55.5 µM (inactive); in the test on SNB-75, 23.9 µM (inactive); with HL-60, 23.1 µM (inactive); in the test on M14 it was 38.8 µM (inactive); in the test with SK-MEL-5 it was 17.6 µM (inactive). In addition, the GI50 is 35.5 µM (inactive) in the test with SF-268; 58.3 µM (inactive) with IGROV-1; 33 µM (inactive) in the test on MCF7; 43.2 µM (inactive) with KM12; 31.5 µM (inactive) with MDA-MB-435.
Take `O=C1Nc2ccccc2/C1=N/Nc1nc(-c2ccc(Br)cc2)cs1`: the GI50 is 17.5 µM (inactive) in the test with ACHN; 46.1 µM (inactive) with SK-MEL-2; 18 µM (inactive) with NCI/ADR-RES; 20.6 µM (inactive) with UACC-62; 14.6 µM (inactive) in the test on HOP-62; 41.5 µM (inactive) with MDA-N. Besides, the GI50 with U-251 was 14.3 µM (inactive); in the test with SF-539 it was 17.5 µM (inactive); with SNB-75 it was 19.7 µM (inactive); with M14 it was 21.8 µM (inactive); in the test with SK-MEL-5 it was 15.6 µM (inactive); in the test on SF-268, 20 µM (inactive). Also, the GI50 with IGROV-1 was 0.678 µM (active); in the test with MCF7 it was 37.3 µM (inactive); in the test on KM12, 30.3 µM (inactive); with MDA-MB-435, 36.5 µM (inactive).
Take `CCOC(=O)c1nc2ccccc2nc1Oc1ccc(F)cc1`: the GI50 was 84.3 µM (inactive) with ACHN; > 100 µM (inactive) in the test on SK-MEL-2; > 100 µM (inactive) in the test with NCI/ADR-RES; > 100 µM (inactive) with UACC-62; > 100 µM (inactive) in the test with HOP-62; > 100 µM (inactive) in the test with MDA-N. In addition, the GI50 in the test with U-251 was 69.2 µM (inactive); in the test with SF-539 it was > 100 µM (inactive); with SNB-75, 11.4 µM (inactive); in the test with M14, > 100 µM (inactive); in the test with SK-MEL-5 it was > 100 µM (inactive); in the test with SF-268, 55.8 µM (inactive). Moreover, the GI50 in the test with IGROV-1, with MCF7, in the test on KM12 and in the test with MDA-MB-435 was > 100 µM (inactive) throughout.
`O=C(O)C(Cc1cc(I)c(O)c(I)c1)C1CCCCC1` (stereo unspecified): the GI50 was 30.3 µM (inactive) with ACHN; 37.4 µM (inactive) in the test on NCI/ADR-RES; 33.1 µM (inactive) in the test on UACC-62; 24.5 µM (inactive) with HOP-62; 43.5 µM (inactive) with MDA-N; 22.3 µM (inactive) with U-251. For the same compound, the GI50 was 37.6 µM (inactive) in the test with SNB-75; 45.5 µM (inactive) in the test on M14; 22.4 µM (inactive) with SK-MEL-5; 36.2 µM (inactive) in the test with SF-268; 27.5 µM (inactive) in the test with IGROV-1; 30.4 µM (inactive) in the test with KM12. The GI50 with Malme-3M was 37.7 µM (inactive); in the test on MDA-MB-435, 60.8 µM (inactive).
For `CCOC(=O)c1nnsc1NN=C(C)C`, the GI50 with SK-MEL-2, in the test with NCI/ADR-RES, in the test with UACC-62, with HOP-62, in the test with MDA-N and with U-251 was > 100 µM (inactive) throughout. The GI50 with SF-539, in the test on SNB-75, with HL-60, with M14, with SK-MEL-5 and in the test on SF-268 was > 100 µM (inactive) in each case. Further, the GI50 in the test on IGROV-1, in the test with KM12, in the test with Malme-3M and with MDA-MB-435 was > 100 µM (inactive) in each case.
For `C#CCn1ncc2c(SC)ncnc21`, the GI50 with ACHN, in the test with SK-MEL-2, in the test on NCI/ADR-RES, in the test with UACC-62, in the test on HOP-62 and in the test on MDA-N was > 100 µM (inactive) in each case. Also, the GI50 in the test on U-251 was > 100 µM (inactive); in the test on SF-539 it was > 100 µM (inactive); in the test with SNB-75, 33.8 µM (inactive); with M14, > 100 µM (inactive); in the test on SK-MEL-5, > 100 µM (inactive); with SF-268, > 100 µM (inactive). The GI50 in the test with IGROV-1, in the test on MCF7, in the test with KM12, in the test on Malme-3M and in the test on MDA-MB-435 was > 100 µM (inactive) each time.
Consider `c1csc(-c2ccc(-c3cccc4nsnc34)s2)c1`, for which the GI50 with ACHN was > 100 µM (inactive); in the test on SK-MEL-2 it was > 100 µM (inactive); in the test on NCI/ADR-RES, > 100 µM (inactive); in the test on UACC-62, > 100 µM (inactive); in the test with HOP-62, 27.4 µM (inactive); with MDA-N, 40.4 µM (inactive). Besides, the GI50 in the test with U-251 is 91.2 µM (inactive); in the test on SF-539 it was > 100 µM (inactive); in the test with SNB-75, 49.3 µM (inactive); with M14, > 100 µM (inactive); with SK-MEL-5, > 100 µM (inactive); in the test on SF-268, > 100 µM (inactive). Further, the GI50 in the test with MCF7 is 14.7 µM (inactive); in the test on KM12, > 100 µM (inactive); in the test on Malme-3M, > 100 µM (inactive); in the test on MDA-MB-435, > 100 µM (inactive).
In the case of `O=C(Cc1ccccc1)NN1C(=O)/C(=C\c2cccc([N+](=O)[O-])c2)S/C1=N\c1ccccc1`, the GI50 in the test with ACHN, in the test with SK-MEL-2, with NCI/ADR-RES, in the test on UACC-62, with HOP-62 and in the test with MDA-N was > 100 µM (inactive) each time. The GI50 with U-251, in the test on SF-539, with SNB-75, in the test with M14, in the test on SK-MEL-5 and in the test on SF-268 was > 100 µM (inactive) each time. The GI50 in the test with IGROV-1 is > 100 µM (inactive); in the test with MCF7, 34.7 µM (inactive); in the test on KM12, > 100 µM (inactive); in the test on MDA-MB-435, > 100 µM (inactive).
As to `CN(C)c1ccc(/C=N/CC2CCCN3CCCCC23)cc1` (stereo unspecified), the GI50 with ACHN, with NCI/ADR-RES, in the test with UACC-62, in the test with HOP-62, in the test on MDA-N and with SNB-75 was > 100 µM (inactive) each time. Moreover, the GI50 was > 100 µM (inactive) with M14; 58.7 µM (inactive) with SK-MEL-5; > 100 µM (inactive) in the test on SF-268; > 100 µM (inactive) in the test on IGROV-1; > 100 µM (inactive) in the test on MCF7; > 100 µM (inactive) in the test with KM12. Also, in the test with Malme-3M, the GI50 is > 100 µM (inactive).
Take `FC(F)(F)c1cnc(N/N=C(/c2ccccc2)c2ccccn2)c(Cl)c1`: the GI50 with ACHN was 3.21 µM (inactive); with SK-MEL-2, 8.18 µM (inactive); in the test on NCI/ADR-RES, 2.78 µM (inactive); in the test on UACC-62 it was 8.75 µM (inactive); in the test with HOP-62, 7.4 µM (inactive); with MDA-N, 23.8 µM (inactive). The GI50 with U-251 was 4.9 µM (inactive); with SF-539, 4.6 µM (inactive); with SNB-75 it was 6.25 µM (inactive); with M14 it was 3.78 µM (inactive); in the test on SK-MEL-5, 4.29 µM (inactive); with SF-268, 4.85 µM (inactive). Further, the GI50 in the test on IGROV-1 was 2.83 µM (inactive); with MCF7, 2.44 µM (inactive); in the test on KM12, 5.14 µM (inactive); with MDA-MB-435, 6.87 µM (inactive).
With `O=C1OC2(CCCCC2)C(Oc2ccc(Cl)cc2)=C1F`, the GI50 was 45.4 µM (inactive) in the test with ACHN; 23.8 µM (inactive) in the test on SK-MEL-2; 22.1 µM (inactive) with UACC-62; > 100 µM (inactive) in the test on HOP-62; 37.2 µM (inactive) in the test on MDA-N; 61.8 µM (inactive) in the test with U-251. In addition, the GI50 is > 100 µM (inactive) with SF-539; 89.1 µM (inactive) in the test on SNB-75; 23.7 µM (inactive) in the test on HL-60; 33 µM (inactive) in the test with M14; 12.9 µM (inactive) in the test on SK-MEL-5; 54 µM (inactive) in the test with SF-268. In addition, the GI50 with IGROV-1 was 54.8 µM (inactive); in the test on MCF7, 37.8 µM (inactive); in the test on KM12 it was 40.1 µM (inactive); with Malme-3M, 15.6 µM (inactive); in the test on MDA-MB-435, 35.6 µM (inactive).

The values above are taken from ChEMBL document CHEMBL1201862, “PubChem BioAssay data set” (2004).
